The target in this test is cellular cereblon (CRBN) (Homo sapiens, UniProt Q96SW2). Description: NanoBRET Target Engagement Assay, competition with pomalidomide tracer in 293T.116 cells. The conditions noted are these: for NanoBRET TE 293T.116 CRBN 2 hours IP nM / NanoBRET TE 293T.116 CRBN 6 hours IP nM / NanoBRET TE 293T.116 CRBN 24 hours IP nM / IC50: 293T.116 cells. (In general: Bioluminescence resonance energy transfer reports proximity on the nanometre scale.)

Where [1] appears, read: NanoBRET TE 293T.116 CRBN 2 hours IC50 nM, 2 hours incubation.
Where [2] appears, read: NanoBRET TE 293T.116 CRBN 6 hours IC50 nM, 6 hours incubation.
The mark [3] stands for this setting: NanoBRET TE 293T.116 CRBN 24 hours IC50 nM, 24 hours incubation.
The mark [4] stands for this setting: read-out: NanoBRET TE 293T.116 CRBN 2 hours Emax.
Setting [5] is: read-out: NanoBRET TE 293T.116 CRBN 6 hours Emax.
Where [6] appears, read: read-out: NanoBRET TE 293T.116 CRBN 24 hours Emax.

Where two headings read alike, the source gives them in different places.

On to `O=C1CCC(c2ccc(S(=O)(=O)F)cc2)C(=O)N1` (stereo not drawn) [Compound A-12, 4-(2,6-dioxopiperidin-3-yl)benzenesulfonyl fluoride], for which the “NanoBRET TE 293T.116 CRBN 2 hours IP nM” value (2 hours incubation) is “*** (<= 1 μM is ***)”. Besides, the “NanoBRET TE 293T.116 CRBN 6 hours IP nM” value (6 hours incubation) is given as “*** (<= 1 μM is ***)”. Further, the “NanoBRET TE 293T.116 CRBN 24 hours IP nM” value (24 hours incubation) is on record as “*** (<= 1 μM is ***)”. The IC50 (commonly the point on the concentration scale where inhibition reaches its midpoint) runs as follows: under setting [1], below 1000 nM; under setting [2], below 1000 nM; under setting [3], 1000 to 10000 nM. Further, the Emax – broadly, the greatest response seen or fitted, relative to the assay's reference – is below 50% under setting [4], below 50% under setting [5] and below 50% under setting [6].

For the compound `O=C1CCC(c2ccc(OS(=O)(=O)F)cc2)C(=O)N1` (stereo not drawn) [Compound A-25, 4-(2,6-dioxopiperidin-3-yl)phenyl sulfurofluoridate], under “6 hours incubation”, the “NanoBRET TE 293T.116 CRBN 6 hours IP nM” value is recorded as “*** (<= 1 μM is ***)”. Besides, the “NanoBRET TE 293T.116 CRBN 24 hours IP nM” value (24 hours incubation) was “*** (<= 1 μM is ***)”. In addition, the IC50 runs as follows: under setting [2], below 1000 nM; under setting [3], below 1000 nM. In addition, the Emax was below 50% under setting [5] and below 50% under setting [6].

Consider `O=C1CCN(c2ccc(N3CCNCC3)c(OS(=O)(=O)F)c2)C(=O)N1` [drawing 1142], for which the “NanoBRET TE 293T.116 CRBN 6 hours IP nM” value (6 hours incubation) is recorded as “* (>=10 μM is *)”. Also, the IC50 under setting [2] fell in the range of 1000 to 10000 nM. Moreover, the Emax under setting [5] is below 50%.

For `Cn1nc(N2CCC(=O)NC2=O)c2cccc(OS(=O)(=O)F)c21` [Compound A-30, 3-(2,4-dioxotetrahydropyrimidin-1(2H)-yl)-1-methyl-1H-indazol-7-yl sulfurofluoridate], where the note is “2 hours incubation”, the “NanoBRET TE 293T.116 CRBN 2 hours IP nM” value was “** (<10 μM and >1 μM is **)”. In addition, the “NanoBRET TE 293T.116 CRBN 6 hours IP nM” value (6 hours incubation) is recorded as “*** (<= 1 μM is ***)”. The “NanoBRET TE 293T.116 CRBN 24 hours IP nM” value (24 hours incubation) was “** (<10 μM and >1 μM is **)”. Also, the IC50 by setting is: under setting [1], 1000 to 10000 nM; under setting [2], below 1000 nM; under setting [3], 1000 to 10000 nM. For the same compound, the Emax is below 50% under setting [4], below 50% under setting [5] and below 50% under setting [6].

Take `COc1cc(OC2CCC(=O)NC2=O)cc(OS(=O)(=O)F)c1` (stereo not drawn) [Compound A-21, 3-(3-fluorosulfonyloxy-5-methoxy-phenoxy)-2,6-dioxo-piperidine]: the “NanoBRET TE 293T.116 CRBN 6 hours IP nM” value (6 hours incubation) was “*** (<= 1 μM is ***)”. For the setting “24 hours incubation”, the “NanoBRET TE 293T.116 CRBN 24 hours IP nM” value was “** (<10 μM and >1 μM is **)”. In addition, the IC50 was below 1000 nM under setting [2] and 1000 to 10000 nM under setting [3]. Moreover, the Emax runs as follows: under setting [5], below 50%; under setting [6], below 50%.

As for `O=C1NC(=O)C2(c3ccc(S(=O)(=O)F)cc3)CC1C2` [Compound A-34, 4-(2,4-dioxo-3-azabicyclo[3.1.1]heptan-1-yl)benzenesulfonyl fluoride], where the note is “2 hours incubation”, the “NanoBRET TE 293T.116 CRBN 2 hours IP nM” value is “** (<10 μM and >1 μM is **)”. Moreover, where the note is “6 hours incubation”, the “NanoBRET TE 293T.116 CRBN 6 hours IP nM” value was “** (<10 μM and >1 μM is **)”. Moreover, under “24 hours incubation”, the “NanoBRET TE 293T.116 CRBN 24 hours IP nM” value is reported as “* (>=10 μM is *)”. Besides, the IC50 is 1000 to 10000 nM under setting [1], 1000 to 10000 nM under setting [2] and above 10000 nM under setting [3]. Besides, the Emax is, setting by setting: under setting [4], below 50%; under setting [5], below 50%; under setting [6], above 80%.

Turning to `O=C1CCC(CNc2cccc(OS(=O)(=O)F)c2)C(=O)N1` (stereo not drawn) [Compound A-40, 3-(((2,6-dioxopiperidin-3-yl)methyl)amino)phenyl sulfurofluoridate], the “NanoBRET TE 293T.116 CRBN 2 hours IP nM” value (2 hours incubation) is recorded as “* (>=10 μM is *)”. Also, the “NanoBRET TE 293T.116 CRBN 6 hours IP nM” value (6 hours incubation) is on record as “* (>=10 μM is *)”. For the same compound, where the note is “24 hours incubation”, the “NanoBRET TE 293T.116 CRBN 24 hours IP nM” value is “** (<10 μM and >1 μM is **)”. Moreover, the IC50 by setting is: under setting [1], above 10000 nM; under setting [2], 1000 to 10000 nM; under setting [3], 1000 to 10000 nM. Further, the Emax is, setting by setting: under setting [4], 50 to 80%; under setting [5], below 50%; under setting [6], below 50%.
